The results in this text go back to ChEMBL document CHEMBL1148726, “Allosteric inhibitors of hepatitis C polymerase: discovery of potent and orally bioavailable carbon-linked dihydropyrones” (J Med Chem, 2007).

The source made the active and inactive calls. The calls are words filed in the database; no cut-off is given here.

Usually IC50 stands for the concentration that inhibits the measured activity by half. Higher therefore signals a need for much substance. Broadly, the EC50 is the concentration that produces a half-maximal response. Higher therefore signals a need for much substance. For orientation: CC50 means the concentration that lowers cell viability or growth by half. Low readings indicate harm at low concentration, high ones better tolerance by the cells. In general, bioavailability refers to dose-corrected exposure relative to a reference, in per cent. A high value points to much systemic uptake. By half-life is commonly meant the time in which the quantity being followed falls by half. Higher therefore signals slow loss. By Papp A→B is commonly meant the apparent permeability from the apical to the basolateral side of a cell layer. Low values mean poor permeation, high ones ready permeation. A word on the Papp B→A: it is the apparent permeability from the basolateral to the apical side of a cell layer.

The nature of data set [1]: Inhibition of HCV 1b NS5B delta21 RNA dependent RNA polymerase by enzymatic assay. More on the design: species or system Hepacivirus hominis.
The subject of a further data set is Hepatitis C virus. Briefly: Antiviral activity against Hepatitis C virus infected Huh7 cells. The data set is classed as functional, organism-based, Hepacivirus hominis, Huh-7.
The nature of data set [2]: Cytotoxic against Huh7 cells. It is filed as cell-based, Huh-7. The settings on record: human.
Data set [3] has as its system Rattus norvegicus. As to the kind of experiment: (§1) Volume of distribution in rat at 25 mg/kg, po or 5 mg/kg, iv. The data set is classed as ADME, organism-based. The settings on record: in vivo.
For data set [4], the system named is Rattus norvegicus. As to the kind of experiment: (§2) Half life in rat at 25 mg/kg, po or 5 mg/kg, iv. It is filed as ADME, organism-based. Conditions: in vivo.
Data set [5] can be described thus: (§3) Bioavailability in rat at 10 mg/kg, po. The data set is classed as ADME, organism-based. The settings on record: in vivo.
The nature of data set [6]: Total plasma clearance in rat at 25 mg/kg, po or 5 mg/kg, iv. The data set is classed as ADME, organism-based.
Data set [7] in a line: as §1. The data set is classed as ADME, organism-based. The settings on record: in vivo, read-out: Vdss.
A short description of data set [8]: as §2. It is filed as ADME, organism-based. Conditions: in vivo.
For data set [9], the system named is Rattus norvegicus. The description is as §3. It is filed as ADME, organism-based. Conditions: in vivo.
A short description of data set [10]: (§4) Inhibition of HCV 1a NS5B delta21 RNA dependent RNA polymerase by enzymatic assay. More on the design: species or system Hepacivirus hominis.
The nature of data set [11]: Ratio of EC50 for HCV in Huh7 cells to IC50 for HCV NS5 B delta 21 polymerase. It is filed as functional, Hepacivirus hominis, Huh-7.
A short description of data set [12]: Fraction absorption in rat at 25 mg/kg, po. It is filed as ADME, organism-based. On the set-up: dose 25 mg/kg, route oral. The settings on record: in vivo.
Data set [13] can be described thus: Bioavailability in rat at 25 mg/kg, po. The data set is classed as ADME, organism-based. The settings on record: in vivo.
Data set [14] can be described thus: Permeability from apical to basolateral side of the Caco-2 cell membrane. It is filed as ADME, cell-based. The settings on record: human.
A short description of data set [15]: Permeability from basolateral to apical side of the Caco-2 cell membrane. The data set is classed as ADME, cell-based. The settings on record: human. On the technique in general: Caco-2 monolayers are a common model of the intestinal barrier.
A short description of data set [16]: Fraction absorption in rat at 10 mg/kg, po. The data set is classed as ADME, organism-based. The settings on record: in vivo. On the set-up: dose 10 mg/kg, route oral.
Data set [17] can be described thus: Total plasma clearance in rat at 10 mg/kg, po or 2 mg/kg, iv. It is filed as ADME, organism-based.
Data set [18] in a line: Volume of distribution in rat at 10 mg/kg, po or 2 mg/kg, iv. The data set is classed as ADME, organism-based. Conditions: in vivo, read-out: Vdss.
Data set [19] in a line: Half life in rat at 10 mg/kg, po or 2 mg/kg, iv. The data set is classed as ADME, organism-based. Conditions: in vivo.
Another data set has as its system Hepacivirus hominis. The data set is described as §4.

The compound `Cc1cc(C)n2nc(CC3=C(O)CC(CCc4ccc(C(C)(C)NS(C)(=O)=O)c(F)c4)(C4CCCC4)OC3=O)nc2n1` (stereo not given) gave a half-inhibitory concentration (IC50) in [1] of 17 nM. Further, the concentration giving a half-maximal response (EC50) in the data set with Hepatitis C virus (Hepatitis C virus, Huh-7) worked out at 110 nM. The CC50 in data set [2] (Huh7 cells) was above 32000 nM.
In data set [1], `Cc1cc(SC2=C(O)OC(CCc3ccc(O)cc3)(C3CCCC3)CC2=O)c(C(C)(C)C)cc1N` (stereo not given) gave an IC50 of 930 nM. This lies in the sub-micromolar range.
In [1], `Cc1cc(C)n2nc(CC3=C(O)CC(CCc4ccc(C(C)(C)C#N)c(F)c4)(C4CCCC4)OC3=O)nc2n1` (single isomer, unassigned; enantiomer 2) [listing 1 of 2 here] had an IC50 of 1 nM. Also, the EC50 in the data set on Hepatitis C virus (huh-7) was 32 nM. Besides, in the data set with Rattus norvegicus [3], the Vdss was found to be 0.17 L/kg. The same compound returned a t1/2 in the data set with Rattus norvegicus [4] of 28.2 min. For the same compound, in data set [5], the bioavailability turned out to be 37%.
As for `Cc1cc(C)n2nc(CC3=C(O)CC(CCc4ccc(C(C)(C)C#N)c(F)c4)(C4CCCC4)OC3=O)nc2n1` (single isomer, unassigned; enantiomer 1), the cytotoxic concentration (CC50) in [2] (huh-7) is 320000 nM. Further, in data set [6], the clearance turned out to be 3.7 mL/min/kg. Besides, the Vd in data set [7] turned out to be 0.3 L/kg. Further, the half-life in [8] was 52.8 min. This compound also registered a F with Rattus norvegicus [9] of 31%. In data set [10], this compound returned a half-inhibitory concentration (IC50) of 70 nM.
Compound `COc1ccc(CCC2(C3CCCC3)CC(O)=C(Cc3nc4nc(C)cc(C)n4n3)C(=O)O2)cc1F` (stereo not given) came in with a concentration for half-maximal inhibition (IC50) in data set [1] of 15 nM. In the data set with Hepatitis C virus (Hepatitis C virus, Huh-7), this compound registered an EC50 of 400 nM. The same compound had a CC50 in data set [2] (Huh7 cells) above 32000 nM.
On to `COc1ccc(CCC2(C3CCCC3)CC(O)=C(Sc3nc4nc(C)cc(C)n4n3)C(=O)O2)cc1Cl` (stereo not given), for which half-maximal inhibition in [1] (IC50) was put at 36 nM. A half-maximal response in the data set on Hepatitis C virus (Hepatitis C virus, Huh-7) (EC50) required 3250 nM. Further, in data set [11], the Ratio was 90. Also, the CC50 in data set [2] (Huh7 cells) is above 100000 nM. This compound came in with a clearance in data set [6] of 14.8 mL/min/kg. Also, the Vd in [7] worked out at 2 L/kg. This compound gave a half-life in data set [8] of 90 min. In addition, in [12], the Fa came to 2.5%. In data set [13], this compound came in with a bioavailability of 2%. Moreover, the Papp A→B in [14] stood at 3 ×10⁻⁶ cm/s. This compound displayed an apparent permeability from basolateral to apical (Papp B→A) in data set [15] of 2.3 ×10⁻⁶ cm/s.
With `Cc1cc(C)n2nc(CC3=C(O)CC(CCc4ccc(S(C)(=O)=O)c(Cl)c4)(C4CCCC4)OC3=O)nc2n1` (stereo not given), the IC50 in data set [1] is 60 nM. In the data set with Hepatitis C virus (Hepatitis C virus, Huh-7), this compound returned a half-maximal effective concentration (EC50) of 610 nM. Further, the CC50 in data set [2] (Huh7 cells) is above 32000 nM.
In data set [1], `COc1ccc(CCC2(C3CCCC3)CC(O)=C(Cc3nc4nc(C)cc(C)n4n3)C(=O)O2)cc1Cl` (stereo not given) registered an IC50 of 20 nM. Further, the concentration giving a half-maximal response (EC50) in the data set with Hepatitis C virus (Hepatitis C virus, Huh-7) was 330 nM. For the same compound, in data set [11], the Ratio is recorded as 17. In data set [2] (Huh7 cells), this compound registered a cytotoxic concentration (CC50) above 32000 nM. Further, the Fa in data set [16] was 48%. Further, in [5], the bioavailability worked out at 42%. This compound registered an apparent permeability from apical to basolateral (Papp A→B) in data set [14] of 10 ×10⁻⁶ cm/s. This compound gave a clearance in data set [17] of 8.3 mL/min/kg. Further, in data set [18], the Vd was found to be 0.3 L/kg. The basolateral-to-apical permeability (Papp B→A) in [15] came to 6.8 ×10⁻⁶ cm/s. In data set [19], the half-life was 30 min.
Consider `Cc1cc(C)n2nc(CC3=C(O)CC(CCc4ccc(C(C)(C)C#N)c(F)c4)(C4CCCC4)OC3=O)nc2n1` (single isomer, unassigned; enantiomer 2) [listing 2 of 2 here], for which, in the data set on Hepacivirus hominis, the outcome was inactive.
In data set [1], `Cc1cc(C)n2nc(CC3=C(O)CC(CCc4ccc(C(C)(C)C#N)c(Cl)c4)(C4CCCC4)OC3=O)nc2n1` (stereo not given) came in with an IC50 of 2 nM. The compound further showed a CC50 in data set [2] (Huh7 cells) above 32000 nM.
On to `COc1ccc(CCC2(C3CCCC3)CC(O)=C(Cc3nc4nc(C)cc(C)n4n3)C(=O)O2)cc1C` (stereo not given), for which the IC50 in [1] was 54 nM. In the data set with Hepatitis C virus (Hepatitis C virus, Huh-7), a half-maximal effect (EC50) was put at 1200 nM. In addition, in [2] (Huh7 cells), the 50% cytotoxic concentration (CC50) is above 32000 nM.
The corresponding values for `CCOc1ccc(CCC2(C3CCCC3)CC(O)=C(Cc3nc4nc(C)cc(C)n4n3)C(=O)O2)cc1Cl` (stereo not given) are 4 nM, 320 nM and above 32000 nM.
`Cc1cc(C)n2nc(CC3=C(O)CC(CCc4ccc(C(C)(C)C#N)c(F)c4)(C4CCCC4)OC3=O)nc2n1` (stereo in doubt; 22) displayed an IC50 in [1] of 3 nM. In the data set with Hepatitis C virus (huh-7), this compound gave an EC50 of 30 nM. In addition, the CC50 in [2] (huh-7) is above 32000 nM.
